Assay results taken from patent US20230416248A1, “COMPOUNDS AND USES THEREOF” (Foghorn Therapeutics Inc., priority 2020, published 2023).
Like-named read-outs stand apart in the source and are kept apart here.

Tests used:
[1] = molecular target: T1, BRM (Homo sapiens, UniProt P51531); test: ATPase catalytic activity of BRM, ADP-Glo in vitro biochemical assay; conditions: for IC50: 30 nM BRM, 400 μM ATP; for Ratio* (BRG1 IC50 (μM) divided by BRM IC50 (μM)): selectivity ratio BRG1 IC50 / BRM IC50
T1 construct: made in house; host or cells: High Five insect cells
Method: (§1) The ATPase catalytic activity of BRM or BRG-1 was measured by an in vitro biochemical assay using ADP-Glo™ (Promega, V9102). The ADP-Glo™ kinase assay is performed in two steps once the reaction is complete. The first step is to deplete any unconsumed ATP in the reaction. The second step is to convert the reaction product ADP to ATP, which will be utilized by the luciferase to generate luminesce and be detected by a luminescence reader, such as Envision.
The assay reaction mixture ([…]) contains 30 nM of BRM or BRG-1, 20 nM salmon sperm DNA (from Invitrogen, UfraPure™ Salmon Sperm DNA Solution, cat #15632011), and 400 μM of ATP in the ATPase assay buffer, which comprises of 20 mM Tris, pH 8, 20 mM MgCl2, 50 mM NaCl, 0.1% Tween-20, and 1 mM fresh DTT (Piercer™ DTT (Dithiothreitol), cat #20290). The reaction is initiated by the addition of the 2.5 μL ATPase solution to 2.5 μL ATP/DNA solution on low volume white Proxiplate-384 plus plate (PerkinElmer, cat #6008280) and incubates at room temperature for 1 hour. Then, following addition of 5 μL of ADP-Glo™ Reagent provided in the kit, the reaction incubates at room temperature for 40 minutes. Then, 10 μL of Kinase Detection Reagent provided in the kit is added to convert ADP to ATP, and the reaction incubates at room temperature for 60 minutes. Finally, luminescence measurement is collected with a plate-reading luminometer, such as Envision.

[2] = molecular target: T2, BRG-1 (Homo sapiens, UniProt P51532); test: ATPase catalytic activity of BRG-1, ADP-Glo in vitro biochemical assay; conditions: 30 nM BRG-1, 400 μM ATP, read-out: BRG1 IC50
T2 construct: made in house; host or cells: High Five insect cells
Method: as §1
Then, following addition of 5 μL of ADP-Glo™ Reagent provided in the kit, the reaction incubates at room temperature for 40 minutes. Then, 10 μL of Kinase Detection Reagent provided in the kit is added to convert ADP to ATP, and the reaction incubates at room temperature for 60 minutes. Finally, luminescence measurement is collected with a plate-reading luminometer, such as Envision.

[3] = ATPase catalytic activity, ADP-Glo

T2 sequence (P51532 whole entry): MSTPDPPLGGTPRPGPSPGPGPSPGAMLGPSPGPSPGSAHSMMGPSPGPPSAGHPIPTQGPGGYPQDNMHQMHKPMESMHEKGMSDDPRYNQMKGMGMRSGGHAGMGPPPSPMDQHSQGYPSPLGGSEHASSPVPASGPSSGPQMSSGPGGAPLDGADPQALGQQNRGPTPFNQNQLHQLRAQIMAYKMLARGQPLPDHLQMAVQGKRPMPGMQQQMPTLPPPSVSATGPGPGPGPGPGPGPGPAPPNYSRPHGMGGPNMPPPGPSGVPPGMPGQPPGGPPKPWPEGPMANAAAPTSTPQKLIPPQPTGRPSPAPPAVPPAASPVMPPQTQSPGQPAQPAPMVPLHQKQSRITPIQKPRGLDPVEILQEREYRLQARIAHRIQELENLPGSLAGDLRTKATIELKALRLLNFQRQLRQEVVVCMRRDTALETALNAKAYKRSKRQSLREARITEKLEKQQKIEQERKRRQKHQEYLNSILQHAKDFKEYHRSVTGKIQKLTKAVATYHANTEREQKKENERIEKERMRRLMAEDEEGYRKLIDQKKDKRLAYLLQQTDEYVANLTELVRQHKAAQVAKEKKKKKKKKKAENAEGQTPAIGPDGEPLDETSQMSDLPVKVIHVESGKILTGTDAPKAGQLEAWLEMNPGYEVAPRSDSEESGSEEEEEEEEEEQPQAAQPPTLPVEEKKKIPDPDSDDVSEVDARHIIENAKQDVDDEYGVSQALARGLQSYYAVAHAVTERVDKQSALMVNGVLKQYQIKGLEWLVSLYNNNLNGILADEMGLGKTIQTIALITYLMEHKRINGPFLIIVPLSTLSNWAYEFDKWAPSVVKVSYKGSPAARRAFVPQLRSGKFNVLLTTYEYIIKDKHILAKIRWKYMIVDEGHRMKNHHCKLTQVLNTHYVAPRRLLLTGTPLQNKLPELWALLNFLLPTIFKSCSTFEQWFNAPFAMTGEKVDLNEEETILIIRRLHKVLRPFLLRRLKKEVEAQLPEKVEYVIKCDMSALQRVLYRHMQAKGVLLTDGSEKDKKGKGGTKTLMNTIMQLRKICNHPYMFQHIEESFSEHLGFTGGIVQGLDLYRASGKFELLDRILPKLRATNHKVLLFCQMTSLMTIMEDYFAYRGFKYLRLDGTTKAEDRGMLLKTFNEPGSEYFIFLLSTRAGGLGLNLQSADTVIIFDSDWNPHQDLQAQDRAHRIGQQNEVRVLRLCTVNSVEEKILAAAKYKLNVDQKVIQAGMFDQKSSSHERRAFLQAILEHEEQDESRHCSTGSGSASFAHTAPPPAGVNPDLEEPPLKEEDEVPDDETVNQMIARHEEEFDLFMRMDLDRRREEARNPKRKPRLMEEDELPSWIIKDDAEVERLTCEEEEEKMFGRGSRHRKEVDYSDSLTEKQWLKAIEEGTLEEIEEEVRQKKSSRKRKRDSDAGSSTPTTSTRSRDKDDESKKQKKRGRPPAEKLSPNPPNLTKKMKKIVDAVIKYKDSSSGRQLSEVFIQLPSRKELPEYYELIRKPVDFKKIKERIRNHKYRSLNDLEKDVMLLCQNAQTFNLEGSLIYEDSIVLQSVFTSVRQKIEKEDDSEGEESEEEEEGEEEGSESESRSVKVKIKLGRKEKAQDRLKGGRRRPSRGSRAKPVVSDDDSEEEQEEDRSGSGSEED
T1 sequence (P51531 whole entry): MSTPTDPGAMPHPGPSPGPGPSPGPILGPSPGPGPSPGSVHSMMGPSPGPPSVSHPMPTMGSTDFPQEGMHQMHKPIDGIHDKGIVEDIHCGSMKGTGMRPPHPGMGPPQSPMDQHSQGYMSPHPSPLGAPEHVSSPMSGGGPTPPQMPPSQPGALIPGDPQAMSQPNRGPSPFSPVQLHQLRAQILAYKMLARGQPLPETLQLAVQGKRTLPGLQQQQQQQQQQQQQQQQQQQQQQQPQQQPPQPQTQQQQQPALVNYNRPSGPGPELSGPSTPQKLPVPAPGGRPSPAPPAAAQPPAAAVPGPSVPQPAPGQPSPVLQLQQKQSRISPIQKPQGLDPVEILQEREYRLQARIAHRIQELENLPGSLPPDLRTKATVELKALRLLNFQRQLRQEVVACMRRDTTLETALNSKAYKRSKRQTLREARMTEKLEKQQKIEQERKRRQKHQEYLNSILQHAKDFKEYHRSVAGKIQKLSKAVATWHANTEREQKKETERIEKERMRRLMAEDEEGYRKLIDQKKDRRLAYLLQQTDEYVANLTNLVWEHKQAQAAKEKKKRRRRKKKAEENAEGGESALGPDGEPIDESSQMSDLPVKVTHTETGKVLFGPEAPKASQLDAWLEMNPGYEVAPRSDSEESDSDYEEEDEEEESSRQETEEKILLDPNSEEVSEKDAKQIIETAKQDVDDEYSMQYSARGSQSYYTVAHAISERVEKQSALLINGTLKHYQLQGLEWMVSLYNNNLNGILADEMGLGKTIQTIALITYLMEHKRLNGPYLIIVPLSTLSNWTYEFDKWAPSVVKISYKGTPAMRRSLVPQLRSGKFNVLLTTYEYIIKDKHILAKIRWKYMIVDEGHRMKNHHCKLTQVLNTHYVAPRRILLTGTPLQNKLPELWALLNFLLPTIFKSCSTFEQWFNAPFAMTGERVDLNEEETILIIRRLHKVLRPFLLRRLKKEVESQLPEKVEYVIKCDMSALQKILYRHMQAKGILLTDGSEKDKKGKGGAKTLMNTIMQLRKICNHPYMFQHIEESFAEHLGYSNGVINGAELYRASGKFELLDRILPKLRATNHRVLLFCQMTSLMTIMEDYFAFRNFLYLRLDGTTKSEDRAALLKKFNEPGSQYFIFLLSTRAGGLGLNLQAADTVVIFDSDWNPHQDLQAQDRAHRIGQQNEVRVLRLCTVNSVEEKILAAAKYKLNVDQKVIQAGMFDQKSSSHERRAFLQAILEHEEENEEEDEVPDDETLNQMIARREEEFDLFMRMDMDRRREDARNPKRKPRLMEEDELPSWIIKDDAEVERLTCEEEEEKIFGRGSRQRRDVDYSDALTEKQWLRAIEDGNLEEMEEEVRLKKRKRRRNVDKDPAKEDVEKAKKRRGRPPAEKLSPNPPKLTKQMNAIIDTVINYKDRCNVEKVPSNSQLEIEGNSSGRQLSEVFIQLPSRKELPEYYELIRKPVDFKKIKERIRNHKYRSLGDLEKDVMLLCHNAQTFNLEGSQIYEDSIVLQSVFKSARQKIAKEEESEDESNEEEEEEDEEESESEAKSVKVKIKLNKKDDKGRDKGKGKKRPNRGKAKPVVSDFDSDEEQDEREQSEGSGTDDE

| IC50 ([1]; ADP-Glo ATPase assay) [µM] | Ratio* (BRG1 IC50 (μM) divided by BRM IC50 (μM)) [1] | IC50 ([2]; ADP-Glo ATPase assay) [µM] | IC50 [1, 3] [µM] | Ratio* ([1]; ratio of BRG1 IC50 to BRM IC50) | IC50 [2, 3] [µM] | Ratio* ([1]; ratio BRG1 IC50 / BRM IC50) | Structure (SMILES) |
| --- | --- | --- | --- | --- | --- | --- | --- |
| 0.0076 | 14.36 | 0.108 |  |  |  |  | C[C@@H]1CN(c2cccc(-c3ccc4cnc(CNC(=O)c5cc(Cl)c6c(c5)S(=O)(=O)CCOC6)cc4n3)n2)C[C@H](C)O1 [Compound 143] |
|  |  |  | 0.0088 | 8.04 | 0.0707 |  | COCCN(c1cccc(-c2ccc3cnc(CNC(=O)c4ccc5c(c4)S(=O)(=O)CCOC5)cc3n2)n1)C1CCC1 [Compound 374] |
|  |  |  | 0.0349 | 14.08 | 0.491 |  | CO[C@@H](C)Cn1ccc2c(-c3ccc4cnc(CNC(=O)c5ccc6c(c5)S(=O)(=O)CCOC6)cc4n3)ccnc21 [Compound 449] |
| 0.0969 | 5.63 | 0.546 |  |  |  |  | CN1CCOc2c(-c3ccc4cnc(CNC(=O)c5ccc6c(c5)S(=O)(=O)CCOC6)cc4n3)ccnc21 [Compound 58] |
| 0.245 | 17.28 | 4.23 |  |  |  |  | CS(=O)(=O)c1cc(C(=O)NCc2cc3nc(-c4cncc(C5CC5)n4)ccc3cn2)cc(F)c1Cl [Compound 272] |
|  |  |  | 0.0099 | 8.22 | 0.081 |  | COCCN1c2cccc(-c3ccc4cnc(CNC(=O)c5ccc6c(c5)S(=O)(=O)CCOC6)cc4n3)c2OCC1C (stereo not drawn) [Compound 326] |
| 0.0042 | 4.64 | 0.0193 |  |  |  |  | C[C@@H]1CN(c2cccc(-c3ccc4cnc(CNC(=O)c5ccc6c(c5)S(=O)(=O)CCOC6)cc4n3)n2)C[C@H](C)O1 [Compound 282] |
| 0.0212 |  | 0.184 |  |  |  | 8.66 | CN(C)c1ccc2c(n1)OCCN2c1ccc2cnc(CNC(=O)c3ccc4c(c3)S(=O)(=O)CCOC4)cc2n1 [Compound 845] |
|  |  |  | 0.0107 | 10.88 | 0.117 |  | O=C(NCc1cc2nc(N3CCCc4ccc(F)nc43)ccc2cn1)c1ccc2c(c1)S(=O)(=O)CCOC2 [Compound 603] |
| 0.0089 | 11.33 | 0.101 |  |  |  |  | O=C(NCc1cc2nc(-c3cccc(C4=CCOCC4)n3)ccc2cn1)c1ccc2c(c1)S(=O)(=O)CCOC2 [Compound 183] |
|  |  |  | 0.0086 | 9.64 | 0.0831 |  | Cc1cnc2c(c1)OCCN2c1ccc2cnc(CNC(=O)c3cc(F)c4c(c3)S(=O)(=O)[C@@H](C)COC4)cc2n1 [Compound 554] |
|  |  |  | 0.0159 | 11.37 | 0.181 |  | CCOc1nc(-c2ccc3cnc(CNC(=O)c4ccc5c(c4)S(=O)(=O)CCOC5)cc3n2)ccc1C(F)F [Compound 489] |
|  |  |  | 0.0238 | 5.71 | 0.136 |  | CC1COc2ccc(-c3ccc4cnc(CNC(=O)c5ccc6c(c5)S(=O)(=O)CCOC6)cc4n3)nc2N1C (stereo not drawn) [Compound 426] |
| 0.0109 | 8.63 | 0.0937 |  |  |  |  | C[C@H]1CN(c2cccc(-c3ccc4cnc(CNC(=O)c5ccc6c(c5)S(=O)(=O)CCOC6)cc4n3)n2)C[C@H](C)O1 [Compound 216] |
| 0.0121 | 14.69 | 0.178 |  |  |  |  | CN(C)c1cccc(-c2ccc3cnc(CNC(=O)c4cc(F)c5c(c4)S(=O)(=O)CCOC5)cc3n2)n1 [Compound 284] |
|  |  |  | 0.0109 | 13.46 | 0.147 |  | O=C(NCc1cc2nc(N3CCCc4cc(C(F)F)cnc43)ccc2cn1)c1ccc2c(c1)S(=O)(=O)CCOC2 [Compound 473] |
|  |  |  | 0.0287 | 7.58 | 0.217 |  | CN1CCN(c2ccc3cnc(CNC(=O)c4ccc5c(c4)S(=O)(=O)CCOC5)cc3n2)c2ccccc21 [Compound 512] |
|  |  |  | 0.039 | 13.24 | 0.517 |  | C[C@@H]1CN(c2cccc(-c3ccc4cnc(CNC(=O)c5ccc6c(c5)S(=O)(=O)[C@@H](C)CN6C5CC5)cc4n3)n2)C[C@H](C)O1 [Compound 667] |
|  |  |  | 0.0559 | 6.61 | 0.37 |  | COc1cccc2c1CCN2c1ccc2cnc(CNC(=O)c3ccc4c(c3)S(=O)(=O)CCOC4)cc2n1 [Compound 647] |

| IC50 ([1]; ADP-Glo ATPase assay) [µM] | Ratio* (BRG1 IC50 (μM) divided by BRM IC50 (μM)) [1] | IC50 ([2]; ADP-Glo ATPase assay) [µM] | IC50 [1, 3] [µM] | Ratio* ([1]; ratio of BRG1 IC50 to BRM IC50) | IC50 [2, 3] [µM] | Ratio* ([1]; ratio BRG1 IC50 / BRM IC50) | Structure (SMILES) |
| --- | --- | --- | --- | --- | --- | --- | --- |
| 0.395 |  | 3.8 |  |  |  | 9.60 | O=C(NCc1cc2nc(N3CC4CC4c4cccnc43)ccc2cn1)c1ccc2c(c1)S(=O)(=O)CCOC2 (stereo not drawn) [Compound 855] |
| 0.0156 | 25.22 | 0.394 |  |  |  |  | C[C@@H]1CN(c2cccc(-c3ccc4cnc(CNC(=O)c5cc(F)c(C(F)F)c(S(C)(=O)=O)c5)cc4n3)n2)C[C@H](C)O1 [Compound 147] |
| 0.074 |  | 0.981 |  |  |  | 13.26 | O=C(NCc1cc2nc(N3CCOc4cc(C(F)F)ncc43)ccc2cn1)c1ccc2c(c1)S(=O)(=O)CCOC2 [Compound 777] |
|  |  |  | 0.0061 | 12.41 | 0.0763 |  | CO[C@H]1C[C@H]1N(C)c1cccc(-c2ccc3cnc(CNC(=O)c4ccc5c(c4)S(=O)(=O)CCOC5)cc3n2)n1 [Compound 534] |
|  |  |  | 0.0421 | 26.15 | 1.1 |  | C[C@H]1COCc2ccc(C(=O)NCc3cc4nc(-c5cccc([C@H]6CC6(F)F)n5)ccc4cn3)cc2S1(=O)=O [Compound 392] |
| 0.121 | 4.71 | 0.57 |  |  |  |  | COCCN1CCCc2c(-c3ccc4cnc(CNC(=O)c5ccc6c(c5)S(=O)(=O)CCOC6)cc4n3)cccc21 [Compound 84] |
| 0.0048 | 3.52 | 0.017 |  |  |  |  | C[C@@H]1CN(c2cccc(-c3ccc4cnc(CNC(=O)c5ccc6c(c5)S(=O)(=O)CCCC6)cc4n3)n2)C[C@H](C)O1 [Compound 91] |
| 0.0181 | 10.70 | 0.194 |  |  |  |  | C[C@@H]1CN(c2cccc(-c3cnc4cnc(CNC(=O)c5ccc(Cl)c(S(C)(=O)=O)c5)cc4n3)n2)C[C@H](C)O1 [Compound 41] |
| 0.0867 | 5.73 | 0.497 |  |  |  |  | C[C@@H]1CN(c2cccc(-c3ccc4cnc([C@@H](C)NC(=O)c5ccc6c(c5)S(=O)(=O)CCOC6)cc4n3)n2)C[C@H](C)O1 [Compound 121] |
|  |  |  | 0.0038 | 9.28 | 0.0357 |  | O=C(NCc1cc2nc(N3CCCc4c(OC5CC5)ccnc43)ccc2cn1)c1ccc2c(c1)S(=O)(=O)CCOC2 [Compound 677] |
| 0.0209 | 19.51 | 0.407 |  |  |  |  | COCCN(C)c1cccc(-c2ccc3cnc(CNC(=O)c4ccc(C(F)F)c(S(C)(=O)=O)c4)cc3n2)n1 [Compound 110] |
|  |  |  | 0.0361 | 11.52 | 0.416 |  | COC[C@H]1C[C@@H]1c1cccc(-c2ccc3cnc(CNC(=O)c4ccc5c(c4)S(=O)(=O)CCOC5)cc3n2)n1 [Compound 369] |
| 0.004 |  | 0.0183 |  |  |  | 4.62 | COc1cc(F)cc2c1CCCN2c1ccc2cnc(CNC(=O)c3ccc4c(c3)S(=O)(=O)CCOC4)cc2n1 [Compound 750] |
|  |  |  | 0.0124 | 12.27 | 0.152 |  | O=C(NCc1cc2nc(-c3cccc([C@]45CCOCC4C5)n3)ccc2cn1)c1ccc2c(c1)S(=O)(=O)CCOC2 (stereo partly drawn) [Compound 377] |
| 0.0125 | 16.30 | 0.204 |  |  |  |  | C[C@@H]1CN(c2cccc(-c3ccc4cnc(CNC(=O)c5cnc(C(F)F)c(S(C)(=O)=O)c5)cc4n3)n2)C[C@H](C)O1 [Compound 132] |
|  |  |  | 0.0249 | 7.67 | 0.191 |  | C[C@H]1CCc2ccc(-c3ccc4cnc(CNC(=O)c5ccc6c(c5)S(=O)(=O)CCOC6)cc4n3)nc2N1C [Compound 468] |
| 0.0098 |  | 0.176 |  |  |  | 17.95 | O=C(NCc1cc2nc(N3CCCc4cnc(OC5CC5)cc43)ccc2cn1)c1ccc2c(c1)S(=O)(=O)CCOC2 [Compound 852] |
|  |  |  | 0.0064 | 26.34 | 0.17 |  | O=C(NCc1cc2nc(N3CCCc4ccc(OC5CC5)cc43)ccc2cn1)c1ccc2c(c1)S(=O)(=O)CCOC2 [Compound 644] |
| 0.528 | 8.82 | 4.66 |  |  |  |  | O=C(NCc1cc2nc(-c3cccc(F)n3)ccc2cn1)c1ccc2c(c1)S(=O)(=O)CCOC2 [Compound 243] |
